In publication PMC9182490, “N-Glucosylation in Corynebacterium glutamicum with YdhE from Bacillus lichenformis” (Molecules, 2022):

Molecular target: T1, YdhE (CO-YdhE) (Bacillus licheniformis, UniProt Q62XT4)
T1 construct: 45 kDa band on SDS-PAGE; not purified
T1 sequence (Q62XT4 1-404): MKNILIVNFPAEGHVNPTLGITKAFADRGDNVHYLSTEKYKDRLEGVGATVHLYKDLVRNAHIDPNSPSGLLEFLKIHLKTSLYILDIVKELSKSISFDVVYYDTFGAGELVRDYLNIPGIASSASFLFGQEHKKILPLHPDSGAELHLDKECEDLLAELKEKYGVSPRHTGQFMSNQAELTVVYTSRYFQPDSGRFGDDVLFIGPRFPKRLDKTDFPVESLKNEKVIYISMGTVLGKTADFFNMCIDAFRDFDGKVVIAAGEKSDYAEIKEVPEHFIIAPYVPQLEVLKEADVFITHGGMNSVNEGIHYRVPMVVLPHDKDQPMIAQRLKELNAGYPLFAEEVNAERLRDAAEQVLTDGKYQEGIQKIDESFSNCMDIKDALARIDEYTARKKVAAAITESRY
Experiment: whole-cell N-glucosylation, HPLC-PDA and HR-QTOF ESI/MS, product NMR
Format: cell-based, Corynebacterium glutamicum
Settings: C. glutamicum harboring pSKSM-YdhE; glucose as sugar source, UDP-sugar donor made by host; 2 mM substrate, 37 °C; product is N-beta-D-glucopyranoside

**Q.** Which “whole-cell N-glucosylation, HPLC-PDA and HR-QTOF ESI/MS, product NMR” value does the source give for `CCCCOC(=O)c1ccc(N)cc1` [compound 2, butyl-4-aminobenzoate] here?
**A.** confirmed the glucosylation of butyl-4-aminobenzoate
